Measurements taken from PubChem BioAssay AID330 (DTP/NCI, 2004).
Where “and” joins values, the source holds several entries; their conditions need not be identical. Identical values can stand only once. Inconclusive results and toxic doses are left out. How the source made its calls: active means survival T/C of 150% or more; inactive means T/C below 125% in these data.

Tested on: P388 leukemia ip, CD2F1 mice, survival T/C
Assay: NCI In Vivo Anticancer Drug Screen. Data for tumor model P388 Leukemia (intraperitoneal) in CD2F1 (CDF1) mice
Conditions: endpoint: median survival time, higher = longer survival
Method in brief: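 Mice carrying the transplanted tumor received test compound or vehicle. Survival was recorded in each group, and the value is the treated-group measurement divided by that of the vehicle-treated control group.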

[1] = dose: 60.0 mg/kg/injection, schedule: Q01DX005 (ip), vehicle: saline with Tween-80
[2] = dose: 120.0 mg/kg/injection, schedule: Q01DX005 (ip), vehicle: saline with Tween-80
[3] = dose: 240.0 mg/kg/injection, schedule: Q01DX005 (ip), vehicle: saline with Tween-80
[4] = dose: 50.0 mg/kg/injection, schedule: Q01DX009 (ip), vehicle: saline with Tween-80
[5] = dose: 100.0 mg/kg/injection, schedule: Q01DX009 (ip), vehicle: saline with Tween-80

Measured: T/C

COC(=O)c1cc(=O)n(Cc2ccco2)c(=Nc2ccccc2)s1
inactive: dose: 50.0 mg/kg/injection, schedule: Q01DX005 (ip), vehicle: saline with Tween-80 98 % of control | dose: 100.0 mg/kg/injection, schedule: Q01DX005 (ip), vehicle: saline with Tween-80 97 % of control | dose: 200.0 mg/kg/injection, schedule: Q01DX005 (ip), vehicle: saline with Tween-80 94 % of control

CCOC(=O)c1ccc(NC(=O)CCOc2ccccc2)cc1
inactive: dose: 60.0 mg/kg/injection, schedule: Q01DX005 (ip), vehicle: Klucel (hydroxypropylcellulose) (HPC) 88 % of control | dose: 120.0 mg/kg/injection, schedule: Q01DX005 (ip), vehicle: Klucel (hydroxypropylcellulose) (HPC) 88 % of control | dose: 240.0 mg/kg/injection, schedule: Q01DX005 (ip), vehicle: Klucel (hydroxypropylcellulose) (HPC) 87 % of control

CC(=O)O[C@H]1CC[C@]2(C)C3CC[C@]4(C)C([C@H](C)CCCC(C)C)CCC4[C@]3(C#N)n3c(=O)n(-c4ccccc4)c(=O)n3[C@]2(C#N)C1 (stereo partly specified)
inactive: [1] 96 % of control | [2] 93 % of control | [3] 91 % of control

Nc1ncnc2c1nc(F)n2C1OC(CO)C(O)C1O (stereo unspecified)
inactive: dose: 6.25 mg/kg/injection, schedule: Q01DX005 (ip), vehicle: saline 107 % of control | dose: 12.5 mg/kg/injection, schedule: Q01DX005 (ip), vehicle: saline 108 % of control | dose: 25.0 mg/kg/injection, schedule: Q01DX005 (ip), vehicle: saline 108 % of control

CC1(C)OC1CS(=O)c1ccccc1 (stereo unspecified)
inactive: [4] 101 % of control | dose: 66.0 mg/kg/injection, schedule: Q01DX009 (ip), vehicle: saline with Tween-80 99 % of control | [5] 99 % of control and 121 % of control | dose: 200.0 mg/kg/injection, schedule: Q01DX009 (ip), vehicle: saline with Tween-80 114 % of control

O=C(O)C1Cc2nc[nH]c2CN1CO (stereo unspecified)
inactive: dose: 25.0 mg/kg/injection, schedule: Q01DX009 (ip), vehicle: saline with Tween-80 100 % of control | [4] 109 % of control and 114 % of control | [5] 119 % of control and 120 % of control

CCCn1c(C)nc2cc(C(F)(F)F)cc([N+](=O)[O-])c21
inactive: dose: 15.0 mg/kg/injection, schedule: Q01DX005 (ip), vehicle: saline with Tween-80 94 % of control | dose: 30.0 mg/kg/injection, schedule: Q01DX005 (ip), vehicle: saline with Tween-80 99 % of control | [1] 101 % of control and 97 % of control | [2] 98 % of control | [3] 103 % of control

CN(C)CCN(Cc1ccc(Cl)s1)c1ccccn1
inactive: dose: 50.0 mg/kg/injection, schedule: Q01DX005 (ip), vehicle: saline 101 % of control | dose: 100.0 mg/kg/injection, schedule: Q01DX005 (ip), vehicle: saline 99 % of control

CCSc1cccc2nncn12
inactive: dose: 50.0 mg/kg/injection, schedule: Q01DX001 (ip), vehicle: saline 103 % of control | dose: 100.0 mg/kg/injection, schedule: Q01DX001 (ip), vehicle: saline 100 % of control | dose: 200.0 mg/kg/injection, schedule: Q01DX001 (ip), vehicle: saline 100 % of control

N#CC1(C#N)C(C#N)(C#N)C12CCCCCC2
inactive: dose: 12.5 mg/kg/injection, schedule: Q04DX003 (ip), vehicle: Klucel (hydroxypropylcellulose) (HPC) 106 % of control | dose: 25.0 mg/kg/injection, schedule: Q04DX003 (ip), vehicle: Klucel (hydroxypropylcellulose) (HPC) 112 % of control | dose: 50.0 mg/kg/injection, schedule: Q04DX003 (ip), vehicle: Klucel (hydroxypropylcellulose) (HPC) 95 % of control

COc1cc(Cc2n[nH]c(=S)[nH]c2=O)cc(OC)c1OC
inactive: dose: 100.0 mg/kg/injection, schedule: Q04DX002 (ip), vehicle: Klucel (hydroxypropylcellulose) (HPC) 110 % of control | dose: 200.0 mg/kg/injection, schedule: Q04DX002 (ip), vehicle: Klucel (hydroxypropylcellulose) (HPC) 98 % of control | dose: 400.0 mg/kg/injection, schedule: Q04DX002 (ip), vehicle: Klucel (hydroxypropylcellulose) (HPC) 100 % of control

CN(C)Cc1nsc(N(C)C)n1
inactive: dose: 50.0 mg/kg/injection, schedule: Q01DX005 (ip), vehicle: Klucel (hydroxypropylcellulose) (HPC) 100 % of control | dose: 100.0 mg/kg/injection, schedule: Q01DX005 (ip), vehicle: Klucel (hydroxypropylcellulose) (HPC) 97 % of control | dose: 200.0 mg/kg/injection, schedule: Q01DX005 (ip), vehicle: Klucel (hydroxypropylcellulose) (HPC) 93 % of control

CCN(CC)c1cc(=O)nc2ccccn12
inactive: dose: 60.0 mg/kg/injection, schedule: Q01DX005 (ip), vehicle: saline 100 % of control | dose: 120.0 mg/kg/injection, schedule: Q01DX005 (ip), vehicle: saline 99 % of control | dose: 240.0 mg/kg/injection, schedule: Q01DX005 (ip), vehicle: saline 106 % of control
